Results as given in patent US20240317683A1, “METHODS OF TREATING MOOD DISORDERS” (priority 2020, published 2024).

What was measured:
5-HT2A = 5-HT2A (Homo sapiens (Human), UniProt P28223); assay: FLIPR Ca2+ flux agonist assay, 5-HT2A; assay type: cell-based; conditions: HEK293
Procedure: (§1) A solution of 250 mM probenecid in 1 mL FLIPR assay buffer was prepared fresh. This was combined with a fluorescent dye (Fluo-4 Direct™) to make a final assay concentration of 2.5 mM. […] The fluorescent dye was then added to the assay plate along with assay buffer to a final volume of 40 μL. The cell plate was incubated for 50 min at 37° C. and 5% CO2 and placed into the FLIPR Tetra along with the compound plate. 10 μL of references and compounds were then transferred from the compound plate into the cell plate and the fluorescent signal was read.

[1] = Stability in mouse brain homogenate; assay type: in vitro ADME, CD-1 mice
Procedure: Mouse Brain Homogenate Stability. Frozen mouse brain homogenate (pooled from male CD-1 mice, BioreclamationIVT, MSE00BRAINMZA) was thawed in a water bath at 37° C. immediately prior to use. Positive controls and test compounds (final concentration in incubation medium=1 μM for test compounds and 2 μM for controls, all with 2% DMSO) were incubated in duplicate for each time point (0, 10, 30, 60, and 120 min) in the mouse brain homogenate at a total reaction volume of […] at 37° C. At the end of each incubation period, reactions were immediately quenched with 400 μL of acetonitrile containing internal standard (200 ng/mL tolbutamine and 200 ng/ml labetalol) and mixed thoroughly. Plates were then sealed, shaken for 20 min, and centrifuged at 4,000 rpm and 4° C. for 20 min. Aliquots of 50 μL of each supernatant were diluted into 100 μL of water and the mixtures were then shaken again for 10 min.

[2] = Metabolic stability in rat liver microsomes (RLM); assay type: in vitro ADME; conditions: both sexes, pooled rat liver microsomes, pH 7.4, NADPH
Procedure: (§2) RLM Stability. Pooled RLM from adult male and female donors (Xenotech R1000) were used. Microsomal incubations were carried out in multi-well plates. […] Control incubations were performed by replacing the NADPH-cofactor system with PBS. Test compounds (1 μM, final solvent concentration 1.0%) were incubated with microsomes at 37° C. with constant shaking. Six time points over 60 minutes were analyzed, with 60 μL aliquots of the reaction mixture being drawn at each time point.

[3] = Metabolic stability in human liver microsomes (HLM); assay type: in vitro ADME; conditions: both sexes, pooled human liver microsomes, pH 7.4, NADPH
Procedure: as §2, with “HLM” for “RLM”, “(Corning 452117)” for “(Xenotech R1000)”

[4] = biological target: serotonin transporter (SERT) (Homo sapiens (Human), UniProt P31645); assay: SERT fluorescent substrate uptake inhibition in transfected HEK293 cells; assay type: cell-based; conditions: HEK293 cells expressing SERT
Procedure: SERT Uptake Inhibition. The ability of test compounds to block monoamine uptake by SERT was determined using the Neurotransmitter Transporter Uptake Assay Kit manufactured by Molecular Devices (Cat #R8173). Briefly, stably transfected HEK293 cells expressing SERT were grown and plated into 384-well plates at a concentration of 20,000 cells per well. Plates were then incubated for 16-20 h at 37° C. and 5% CO2. The medium was then aspirated and replaced with 25 μL of assay buffer (20 mM HEPES in HBSS, containing 0.1% BSA) containing the test compounds at the appropriate concentrations. Plates were then centrifuged at 300 rpm for 15 s and then incubated at 37° C. for 30 minutes. At this time, 25 μL of the proprietary fluorescent dye solution was added, the plates were incubated at 37°° C. for 60 minutes, and then fluorescence was quantified on a plate reader (excitation wavelength =440 nm, emission wavelength=520 nm). The proprietary dye solution contains a mixture of 1) a fluorescent dye (dye 1) that mimics the endogenous substrate of SERT and is thereby actively transported to the intracellular compartment in the absence of an inhibitor and 2) a masking dye that inhibits the fluorescence of dye 1 in the extracellular compartment. Therefore, the overall fluorescence of the system increases as the fluorescent dye is transported into the cells.

5-HT1A = 5-HT1A (Homo sapiens (Human), UniProt P08908); assay: FLIPR Ca2+ flux agonist assay, 5-HT1A; assay type: cell-based; conditions: Ca2+ flux, CHO cells
Procedure: as §1

[5] = Metabolic stability in mouse liver microsomes (MLM); assay type: in vitro ADME, CD-1 mice; conditions: CD-1, mouse, pooled mouse liver microsomes, pH 7.4, NADPH
Procedure: as §2, with “MLM” for “RLM”, “CD-1 mice (BIOIVT M00501)” for “adult male and female donors (Xenotech R1000)”

[6] = Stability in rat brain homogenate; assay type: in vitro ADME, Sprague Dawley rats
Procedure: Rat Brain Homogenate Stability. Frozen rat brain homogenate (pooled from male Sprague Dawley rats, BioreclamationIVT, RATOOBRAINMZA) was thawed in a water bath at 37° C. immediately prior to use. Positive controls and test compounds (final concentration in incubation medium=1 μM for test compounds and 2 μM for controls, all with 2% DMSO) were incubated in duplicate for each time point (0, 10, 30, 60, and 120 min) in the rat brain homogenate at a total reaction volume of 100 μL at 37° C. At the end of each incubation period, reactions were immediately quenched with 400 μL of acetonitrile containing internal standard (200 ng/ml tolbutamine and 200 ng/ml labetalol) and mixed thoroughly. Plates were then sealed, shaken for 20 min, and centrifuged at 4,000 rpm and 4° C. for 20 min. Aliquots of 50 μL of each supernatant were diluted into 100 uL of water and the mixtures were then shaken again for 10 min.

5-HT2B = 5-HT2B (Homo sapiens (Human), UniProt P41595); assay: FLIPR Ca2+ flux agonist assay, 5-HT2B; assay type: cell-based; conditions: Ca2+ flux, HEK293
Procedure: as §1

[7] = system: monoamine oxidase A and B (MAO-A and MAO-B); assay: Stability in the presence of monoamine oxidases (human liver mitochondria); assay type: in vitro ADME
Procedure: Liver Mitochondria Incubations. Human liver mitochondria (Xenotech H0610.M) were used. Mitochondrial incubations were carried out in multi-well plates. […] Six time points over 60 minutes were analyzed.

C57BL/6 mice = assay: Head twitch response (HTR) in mice; assay type: in vivo
Procedure: Animals. Adult male C57BL/6 mice, aged 8 weeks (body weight 20-25 g) were used in these experiments. Animals were housed under controlled temperatures and 12-hour light/dark cycles (lights on between 07:00-19:00 h), with ad libitum food and water. The protocol was approved by the Eurofins Advinus Institutional Animal Care and Use Committee. This study was carried out in strict accordance with the recommendations in the Guide for the Care and Use of Laboratory Animals of the National Institutes of Health. All efforts were made to minimize suffering.
Drugs and Drug administration. Compounds 3 and 4 were prepared as described above. All other compounds were commercially obtained. Test compounds were used as the hydrogen fumarate (1 and 2) or hydrochloride (DOI, 3, and 4) salts. Drugs were dissolved in a vehicle consisting of normal saline and administered subcutaneously (SC) in a volume of 10 ml/kg. Test compounds were administered at 5 doses per compound (0.1 to 100 mg/kg, as indicated, calculated based on the free base) using N=6 animals/group. […] For blockade experiments, MDL100907 (0.1 mg/kg, SC) was administered 10 mins prior to the test compound.
Procedure. Mice were administered one dose of a test drug (or vehicle) s.c. and immediately placed into a small open field for behavioral observation. Animals were observed continuously for 20 mins and the number of HTRs were counted by an observer blind to the treatment condition.
Statistical analysis. The data points shown in Table 11 are the mean ±standard error of the mean (SEM). Analysis was performed using GraphPad Prism 9.

[8] = human liver mitochondria, pH 7.4, human mitochondrial preparation, 1 μM

Chain of 5-HT2B (P41595 whole entry, looked up, species assumed): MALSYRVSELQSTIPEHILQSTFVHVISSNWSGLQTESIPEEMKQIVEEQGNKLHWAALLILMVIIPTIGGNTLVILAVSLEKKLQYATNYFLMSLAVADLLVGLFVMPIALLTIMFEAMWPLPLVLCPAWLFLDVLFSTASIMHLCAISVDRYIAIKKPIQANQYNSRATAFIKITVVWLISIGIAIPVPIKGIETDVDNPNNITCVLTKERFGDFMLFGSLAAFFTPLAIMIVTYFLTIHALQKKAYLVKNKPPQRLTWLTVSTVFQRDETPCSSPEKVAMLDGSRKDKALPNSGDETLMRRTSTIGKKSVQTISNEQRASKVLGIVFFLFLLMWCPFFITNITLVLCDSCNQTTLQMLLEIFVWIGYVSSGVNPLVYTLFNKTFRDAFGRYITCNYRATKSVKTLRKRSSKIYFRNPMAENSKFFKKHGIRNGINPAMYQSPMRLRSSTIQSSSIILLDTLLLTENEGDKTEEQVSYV

## COc1ccc2[nH]cc(CCN(C)C)c2c1 [Compound 5-MeO-DMT, 5-methoxy-N,N-dimethyltryptamine, reference compound]
5-HT2A
  5-HT2A % Act @ Max Dose: 106%
[1]
  stability in mouse brain homogenate (in words): high stability
[1]; male, CD-1, mouse brain homogenate, 1 μM, 37° C.
  half-life at 1 μM: > 289 min
[1]; mouse brain homogenate, 1 μM, 37° C.
  % Compound Remaining (after 120 min): 91.2%
[2]
  half-life at 1 μM: 14 min
  microsomal CLint at 1 μM: 98.8 µL/min/mg
[3]
  half-life at 1 μM: 13.6 min
[4]
  IC50: 7.02 µM
  SERT % Inhibition @ Max Dose: 68.07%
5-HT1A
  5-HT1A % Act @ Max Dose: 78.8%
[5]
  half-life at 1 μM: 48.8 min
  microsomal CLint at 1 μM: 28.4 µL/min/mg
[6]
  stability in rat brain homogenate (in words): highly unstable
[6]; male, Sprague Dawley, rat brain homogenate, 1 μM, 37° C.
  half-life at 1 μM: 14.4 min
[6]; rat brain homogenate, 1 μM, 37° C.
  % Compound Remaining (after 120 min): 0.3%
5-HT2B
  5-HT2B % Act @ Max Dose: 20.5%
[7]; human liver mitochondria preparation
  MAO stability (in words): highly metabolized
[7]; [8]
  half-life at 1 μM: 52.9 min
  microsomal CLint at 1 μM: 43.6 µL/min/mg
[7]; human mitochondrial preparation, 1 μM, 60 min
  Remaining (t = 60 min): 47.1%

## COc1cccc([C@H](O)C2CCN(CCc3ccc(F)cc3)CC2)c1OC [MDL100907, reference compound]
C57BL/6 mice; pretreatment 0.1 mg/kg SC, 10 mins prior to Compound 4
  blockade of the HTR induced by Compound 4: completely blocked

## COc1cc(CC(C)N)c(OC)cc1I (stereo not shown) [DOI, 4-iodo-2,5-dimethoxyamphetamine, reference compound]
C57BL/6 mice; SC, maximal over tested doses
  maximal effect in HTR: 35.6 head twitches/20 min
